Experiments:
A549 [1] = assay: Antiproliferative activity against human A549 cells assessed as inhibition of cell growth measured after 48 hrs in presence of scramble siRNA by MTT assay; format: functional, cell-based; settings: A549, 48 h
5637 = assay: cells; settings: Homo sapiens, 5637, 48 h
Description: Antiproliferative activity against human 5637 cells assessed as inhibition of cell growth measured after 48 hrs by MTT assay

A549 [2] = assay: Induction of cell cycle arrest in human A549 cells assessed as accumulation of cells at G0/G1 phase at 0.1 uM incubated for 48 hrs by PI staining based flow cytometry analysis (reference value: 63.26%); format: functional
[3] = Toxicity in BALB/c mouse assessed as morphological changes in kidney at 2 to 4 mg/kg by H and E staining based analysis; format: organism-based; settings: in vivo, dose 2-4 mg/kg
BXPC-3 = assay: Antiproliferative activity against human BXPC-3 cells assessed as inhibition of cell growth measured after 48 hrs by MTT assay; format: functional, cell-based; settings: bxpc-3
HepG2 = assay: Antiproliferative activity against human HepG2 cells assessed as inhibition of cell growth measured after 48 hrs by MTT assay; format: functional, cell-based; settings: hepg2
PANC-1 = assay: Antiproliferative activity against human PANC-1 cells assessed as inhibition of cell growth measured after 48 hrs by MTT assay; format: functional, cell-based; settings: panc-1
A549 [4] = assay: Antitumor activity against human A549 cells xenografted in BALB/c nude mouse assessed as inhibition of tumor growth at 4 mg/kg, sc administered every 2 days for 14 days relative to control; format: functional; design: scale not given: the % may be the effect or the level left; settings: time 14 day
NCI-H1299 = assay: Antiproliferative activity against human NCI-H1299 cells assessed as inhibition of cell growth measured after 48 hrs by MTT assay; format: functional, cell-based; settings: nci-h1299
[5] = Drug uptake in Sprague-Dawley rat blood at 2 mg/kg measured after 24 hrs by UPLC-3Q analysis; format: ADME, organism-based; settings: in vivo
[6] = Toxicity in BALB/c mouse assessed as morphological changes in liver at 2 to 4 mg/kg by H and E staining based analysis; format: organism-based; settings: in vivo, dose 2-4 mg/kg
[7] = target: T1, Interleukin enhancer-binding factor 3 (Homo sapiens, UniProt Q12906); assay: Binding affinity to ILF3 (unknown origin) assessed as dissociation constant at upto 1 uM by SPR method
T1 sequence (Q12906 whole entry): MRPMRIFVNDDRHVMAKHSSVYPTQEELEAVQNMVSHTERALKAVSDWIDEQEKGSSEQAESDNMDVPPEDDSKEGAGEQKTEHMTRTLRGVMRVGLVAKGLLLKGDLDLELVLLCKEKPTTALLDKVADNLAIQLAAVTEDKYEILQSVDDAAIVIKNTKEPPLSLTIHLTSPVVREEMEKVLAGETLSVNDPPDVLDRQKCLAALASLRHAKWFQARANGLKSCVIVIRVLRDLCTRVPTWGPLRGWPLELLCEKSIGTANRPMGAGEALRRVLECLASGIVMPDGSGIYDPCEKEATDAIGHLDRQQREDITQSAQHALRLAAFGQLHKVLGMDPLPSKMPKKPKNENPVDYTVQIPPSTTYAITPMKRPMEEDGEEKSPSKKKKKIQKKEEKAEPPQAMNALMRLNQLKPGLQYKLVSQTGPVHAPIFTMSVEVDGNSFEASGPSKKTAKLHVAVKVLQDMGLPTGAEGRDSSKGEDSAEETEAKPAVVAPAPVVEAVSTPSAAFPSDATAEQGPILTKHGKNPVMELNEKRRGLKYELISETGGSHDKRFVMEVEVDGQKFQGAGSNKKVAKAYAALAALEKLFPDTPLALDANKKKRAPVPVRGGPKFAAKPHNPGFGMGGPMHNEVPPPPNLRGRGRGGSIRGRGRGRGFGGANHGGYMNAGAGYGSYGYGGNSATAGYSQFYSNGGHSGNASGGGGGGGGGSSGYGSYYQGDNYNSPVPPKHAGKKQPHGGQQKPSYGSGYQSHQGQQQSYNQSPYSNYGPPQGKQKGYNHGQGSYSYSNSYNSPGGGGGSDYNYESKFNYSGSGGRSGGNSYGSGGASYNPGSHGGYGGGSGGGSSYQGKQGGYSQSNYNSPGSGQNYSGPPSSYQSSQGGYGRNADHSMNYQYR

A549 [8] = assay: Induction of apoptosis in human A549 cells assessed as necrotic cells at 0.25 uM measured after 48 hrs by annexin V and PI staining based flow cytometry analysis (reference value: 1.47%); format: functional
[9] = Drug distribution in BALB/C nude mouse tumor xenografted with human A549 cells at 2 mg/kg measured after 2 to 6 hrs by UPLC-3Q analysis; format: ADME, organism-based, Neoplasm; settings: in vivo, time 2-6 hrs
A549 [10] = assay: Induction of apoptosis in human A549 cells assessed as late apoptotic cells at 0.04 uM measured after 48 hrs by annexin V and PI staining based flow cytometry analysis (reference value: 4.70%); format: functional
HeLa = assay: Antiproliferative activity against human HeLa cells assessed as inhibition of cell growth measured after 48 hrs by MTT assay; format: functional, cell-based; settings: hela
A549 [11] = assay: Induction of apoptosis in human A549 cells assessed as viable cells at 0.25 uM measured after 48 hrs by annexin V and PI staining based flow cytometry analysis (reference value: 93.3%); format: functional; settings: Homo sapiens, A549, 48 h, read-out: Activity
A549 [12] = assay: Induction of apoptosis in human A549 cells assessed as late apoptotic cells at 0.25 uM measured after 48 hrs by annexin V and PI staining based flow cytometry analysis (reference value: 4.70%); format: functional
A549 [13] = assay: Induction of apoptosis in human A549 cells assessed as necrotic cells at 0.04 uM measured after 48 hrs by annexin V and PI staining based flow cytometry analysis (reference value: 1.47%); format: functional
A549 [14] = assay: Induction of apoptosis in human A549 cells assessed as early apoptotic cells at 0.1 uM measured after 48 hrs by annexin V and PI staining based flow cytometry analysis (reference value: 0.71%); format: functional
143B = assay: Antiproliferative activity against human 143B cells assessed as inhibition of cell growth measured after 48 hrs by MTT assay; format: functional, cell-based; settings: 143b
NCI-H460 = assay: Antiproliferative activity against human NCI-H460 cells assessed as inhibition of cell growth measured after 48 hrs by MTT assay; format: functional, cell-based; settings: nci-h460
[15] = Selectivity index, ratio of IC50 for mouse L929 cells to IC50 for human A549 cells; format: toxicity; settings: L929 cells and A549 cells, read-out: Ratio IC50
[16] = Toxicity in BALB/c nude mouse assessed as effect on body weight at 2 mg/kg, sc administered every 2 days for 14 days; format: organism-based; settings: in vivo, 336 h, time 14 day
A549 [17] = assay: Induction of apoptosis in human A549 cells assessed as late apoptotic cells at 0.1 uM measured after 48 hrs by annexin V and PI staining based flow cytometry analysis (reference value: 4.70%); format: functional
[18] = Toxicity in BALB/c nude mouse assessed as death at 4 mg/kg, sc administered every 2 days for 14 days; format: organism-based; settings: in vivo, 336 h, time 14 day
A549 [19] = assay: Induction of apoptosis in human A549 cells assessed as viable cells at 0.04 uM measured after 48 hrs by annexin V and PI staining based flow cytometry analysis (reference value: 93.3%); format: functional; settings: Homo sapiens, A549, 48 h, read-out: Activity
[20] = Toxicity in BALB/c nude mouse assessed as dermatitis at 2 mg/kg, sc administered every 2 days for 14 days; format: organism-based; settings: in vivo, 336 h, time 14 day

Structure (SMILES): Cn1c[n+](C)c2c1C(=O)c1cc3ccccc3cc1C2=O.[I-]
- IC50 (A549 [1]): 9 nM
- IC50 5637: 180 nM
- Activity (A549 [2]): 85.37%
- Activity [3]: Non-Toxic
- IC50 (BXPC-3): 70 nM
- IC50 (HepG2): 250 nM
- IC50 (PANC-1): 80 nM
- Activity (A549 [4]): 83.6%
- IC50 (NCI-H1299): 510 nM
- Drug uptake [5]: Active
- Activity [6]: Non-Toxic
- Kd [7]: 163 nM
- Activity (A549 [8]): 4.32%
- Drug uptake [9]: Active
- Activity (A549 [10]): 61.4%
- IC50 (HeLa): 1160 nM
- viability at 0.25 µM (A549 [11]): 3.28%
- Activity (A549 [12]): 90%
- Activity (A549 [13]): 4.74%
- Activity (A549 [14]): 2.55%
- IC50 (143B): 590 nM
- IC50 (NCI-H460): 140 nM
- selectivity ratio [15]: 2390
- Activity [16]: Non-Toxic
- Activity (A549 [17]): 81.9%
- Activity [18]: Non-Toxic
- viability at 0.04 µM (A549 [19]): 27.8%
- Activity [20]: Non-Toxic

Source: ChEMBL document CHEMBL5375989, “Pioneering 4,11-Dioxo-4,11-dihydro-1H-anthra[2,3-d]imidazol-3-ium Compounds as Promising Survivin Inhibitors by Targeting ILF3/NF110 for Cancer Therapy” (J Med Chem, 2023)
